One assay concerns the target T1, MET (Homo sapiens, UniProt P08581).
T1 construct: purchased Carna Biosciences 08-151
The experiment in a line: MET Mobility Shift Assay. As to conditions: biochemical assay IC50; 100 μM ATP, 60 minute kinase reaction. The method, then: (§1) Small molecule inhibition of MET kinase activity was evaluated using a fluorescence-based microfluidic mobility shift assay. MET catalyzes the production of ADP from ATP during phosphoryl transfer to the substrate peptide, FLPeptide30 (5-FAM-KKKKEEIYFFF-CONH2) (Perkin Elmer, 760430). MET enzme (Carna Biosciences, 08-151) at 0.625 nM was prepared with 10 mM MgCl2 and 1.5 μM substrate peptide in a buffer containing 50 mM HEPES, 1 mM EGTA, 0.01% Brij-35, 0.05% BSA, and 2 mM DTT and pre-incubated at room temperature for 30 min prior to the start of the reaction. 100 μM ATP was added to start the reaction. The mobility shift assay electrophoretically separates the fluorescently labeled peptides (substrate and phosphorylated product) following the 60 minute kinase reaction. The reaction was terminated by addition of 0.5 M EDTA. Both substrate and product were measured and the ratio of these values used to generate % conversion of substrate to product by the LabChip EZ reader (Perkin Elmer). ICso values were calculated using the inhibition of conversion ratio using Dotmatics Knowledge Solutions Studies curve fitting environment (Dotmatics, Bishops Stortford, UK, CM23) and are presented in Table 2.

In a further assay the target is T2, MET D1228N (Homo sapiens, UniProt P08581, D1228N).
T2 construct: purchased Signalchem M52-12IG
The experiment in a line: MET D1228N Mobility Shift Assay. The following applies: biochemical assay IC50; 100 μM ATP, 60 minute kinase reaction. How it is done:
as §1, with “MET D1228N” for “MET”, “a fluorescence -based” for “a fluorescence-based”, “FLPeptide30 (5-FAM-KKKKEEIYFFF -CONH2)” for “FLPeptide30 (5-FAM-KKKKEEIYFFF-CONH2)”, “MET D1228N enzyme (Signalchem, M52-12IG)” for “MET enzme (Carna Biosciences, 08-151)”, “at 0.313” for “at 0.625”

The target in the next assay is T3, Ba/F3-TPR-MET cells (Homo sapiens, UniProt P08581).
T3 construct: fused on or other part: P12270 (Nucleoprotein TPR)
The experiment in a line: CellTiter-Glo Cell Viability Assay, Ba/F3-TPR-MET. The format is cell-based. The following applies: 72 hours. How it is done:
(§2) Ba/F3-TPR-MET and Ba/F3-TPR-MET-D1228N cells were seeded at 3000 cells per well in a 96 well plate in 90 μL growth media and allowed to incubate overnight at 37° C. with 5% CO2. The following day, compounds were serially diluted from a 10 mM top dose for a 9-point 3-fold dilution curve in DMSO. Following a 100-fold dilution in growth media, a further 10-fold dilution was made into the cell plate for a final volume of 100 μL and 0.1% DMSO. Compounds and cells were incubated together for 72 hours at 37° C. with 5% CO2. The CellTiter-Glo® 2.0 Assay determines the number of viable cells in culture by quantifying ATP, which indicates the presence of metabolically active cells. Luminescence readout is directly proportional to the number of viable cells in culture. CellTiter-Glo reagent (Promega, G9243) and cell plates were allowed to equilibrate to room temperature for at least 15 min, then 100 μL of CellTiter-Glo was added to each well for a 1:1 ratio of reagent to media. Samples were placed on a shaker for 2 min prior to a 30 min incubation at room temperature protected from light. Luminescence was read on a Perkin Elmer Envision plate reader 2105 and used to calculate ICso values within the Dotmatics Knowledge Solutions Studies curve fitting environment (Dotmatics, Bishops Stortford, UK, CM23) and are presented in Table 2.

Assay [1] concerns the target T4, Ba/F3-TPR-MET-D1228N cells (Homo sapiens, UniProt P08581, D1228N, cells depend on it).
T4 construct: fused on or other part: P12270 (Nucleoprotein TPR)
The experiment in a line: CellTiter-Glo Cell Viability Assay, Ba/F3-TPR-MET-D1228N. It counts as cell-based. As to conditions: 72 hours. How it is done: as §2

The text below walks through data of patent US11753395B2 (Kinnate Biopharma Inc., priority 2021, dated 2023).

A value given as a limit tells only on which side of the number the result lay.

T4 sequence (P08581 whole entry D1228N, the tested form may be a part): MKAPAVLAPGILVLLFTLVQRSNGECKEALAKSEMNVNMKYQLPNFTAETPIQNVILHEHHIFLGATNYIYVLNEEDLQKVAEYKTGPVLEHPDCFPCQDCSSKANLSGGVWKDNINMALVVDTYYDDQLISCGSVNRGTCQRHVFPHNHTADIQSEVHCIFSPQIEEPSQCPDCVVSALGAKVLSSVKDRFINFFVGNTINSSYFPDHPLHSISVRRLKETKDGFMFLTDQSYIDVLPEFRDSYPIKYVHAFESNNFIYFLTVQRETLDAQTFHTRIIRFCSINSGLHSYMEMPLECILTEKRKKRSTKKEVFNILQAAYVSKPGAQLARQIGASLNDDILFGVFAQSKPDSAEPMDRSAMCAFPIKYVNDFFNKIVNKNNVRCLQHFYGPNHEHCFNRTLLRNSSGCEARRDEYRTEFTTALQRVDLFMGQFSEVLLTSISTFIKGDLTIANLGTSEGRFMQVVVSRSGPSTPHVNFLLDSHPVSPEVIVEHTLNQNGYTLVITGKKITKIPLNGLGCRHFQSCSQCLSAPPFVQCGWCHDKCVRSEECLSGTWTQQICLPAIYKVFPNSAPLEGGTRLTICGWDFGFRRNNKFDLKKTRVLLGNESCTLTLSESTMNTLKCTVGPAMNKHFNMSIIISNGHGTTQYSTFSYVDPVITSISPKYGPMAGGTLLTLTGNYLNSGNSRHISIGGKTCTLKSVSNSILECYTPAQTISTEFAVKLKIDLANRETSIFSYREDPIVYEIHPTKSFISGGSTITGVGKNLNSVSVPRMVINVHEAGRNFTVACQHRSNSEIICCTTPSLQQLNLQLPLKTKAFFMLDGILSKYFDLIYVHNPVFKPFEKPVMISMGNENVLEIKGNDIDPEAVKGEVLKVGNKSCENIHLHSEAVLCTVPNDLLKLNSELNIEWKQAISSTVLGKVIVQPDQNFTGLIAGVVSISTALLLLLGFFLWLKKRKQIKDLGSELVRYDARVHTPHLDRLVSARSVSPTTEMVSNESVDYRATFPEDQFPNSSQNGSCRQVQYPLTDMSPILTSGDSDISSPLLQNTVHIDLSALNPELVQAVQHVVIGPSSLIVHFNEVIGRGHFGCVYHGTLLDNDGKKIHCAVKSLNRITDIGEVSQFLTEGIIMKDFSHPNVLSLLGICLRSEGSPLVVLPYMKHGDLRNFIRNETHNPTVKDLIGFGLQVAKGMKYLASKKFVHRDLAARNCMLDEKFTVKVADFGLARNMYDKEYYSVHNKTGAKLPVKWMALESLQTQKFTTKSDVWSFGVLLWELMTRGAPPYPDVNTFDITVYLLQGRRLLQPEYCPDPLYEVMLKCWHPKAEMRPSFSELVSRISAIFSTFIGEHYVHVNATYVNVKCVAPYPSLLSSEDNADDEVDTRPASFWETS
T1 sequence (P08581 25-1390): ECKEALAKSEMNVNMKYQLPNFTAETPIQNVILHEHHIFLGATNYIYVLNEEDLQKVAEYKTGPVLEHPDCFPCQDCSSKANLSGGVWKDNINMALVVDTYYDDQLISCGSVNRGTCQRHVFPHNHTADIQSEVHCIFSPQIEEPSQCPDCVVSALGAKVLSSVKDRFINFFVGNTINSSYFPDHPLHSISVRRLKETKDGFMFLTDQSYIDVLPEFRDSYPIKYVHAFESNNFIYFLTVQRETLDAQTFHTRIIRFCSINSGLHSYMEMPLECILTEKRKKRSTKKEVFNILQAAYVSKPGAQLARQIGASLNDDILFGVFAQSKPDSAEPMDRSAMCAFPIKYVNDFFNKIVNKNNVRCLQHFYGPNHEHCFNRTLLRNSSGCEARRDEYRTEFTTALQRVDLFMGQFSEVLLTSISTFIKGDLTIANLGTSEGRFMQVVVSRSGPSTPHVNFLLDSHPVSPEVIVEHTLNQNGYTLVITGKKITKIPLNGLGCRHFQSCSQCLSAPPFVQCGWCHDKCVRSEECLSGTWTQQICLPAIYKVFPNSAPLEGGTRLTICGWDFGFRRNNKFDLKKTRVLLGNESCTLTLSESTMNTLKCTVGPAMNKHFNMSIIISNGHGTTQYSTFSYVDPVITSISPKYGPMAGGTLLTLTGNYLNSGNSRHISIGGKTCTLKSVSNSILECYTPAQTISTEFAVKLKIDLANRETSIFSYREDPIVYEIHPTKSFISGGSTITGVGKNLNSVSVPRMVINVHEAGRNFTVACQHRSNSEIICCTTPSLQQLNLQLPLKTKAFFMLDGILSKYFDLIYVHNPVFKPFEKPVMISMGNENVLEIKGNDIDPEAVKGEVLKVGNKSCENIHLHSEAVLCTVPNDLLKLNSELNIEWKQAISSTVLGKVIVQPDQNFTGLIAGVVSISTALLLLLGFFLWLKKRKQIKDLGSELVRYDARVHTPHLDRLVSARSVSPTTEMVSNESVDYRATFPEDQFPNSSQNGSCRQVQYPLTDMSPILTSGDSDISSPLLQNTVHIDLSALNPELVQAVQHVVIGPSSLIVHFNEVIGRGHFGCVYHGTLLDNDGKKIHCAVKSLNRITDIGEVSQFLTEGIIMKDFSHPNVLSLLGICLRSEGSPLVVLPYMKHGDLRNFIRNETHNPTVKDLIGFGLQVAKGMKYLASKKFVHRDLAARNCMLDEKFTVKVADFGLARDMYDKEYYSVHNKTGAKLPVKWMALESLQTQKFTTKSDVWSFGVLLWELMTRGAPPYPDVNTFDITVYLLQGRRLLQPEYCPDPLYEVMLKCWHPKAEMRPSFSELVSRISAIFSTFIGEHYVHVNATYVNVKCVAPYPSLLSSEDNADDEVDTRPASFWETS
T3 sequence (P08581 whole entry, change not shown, the tested form may be a part): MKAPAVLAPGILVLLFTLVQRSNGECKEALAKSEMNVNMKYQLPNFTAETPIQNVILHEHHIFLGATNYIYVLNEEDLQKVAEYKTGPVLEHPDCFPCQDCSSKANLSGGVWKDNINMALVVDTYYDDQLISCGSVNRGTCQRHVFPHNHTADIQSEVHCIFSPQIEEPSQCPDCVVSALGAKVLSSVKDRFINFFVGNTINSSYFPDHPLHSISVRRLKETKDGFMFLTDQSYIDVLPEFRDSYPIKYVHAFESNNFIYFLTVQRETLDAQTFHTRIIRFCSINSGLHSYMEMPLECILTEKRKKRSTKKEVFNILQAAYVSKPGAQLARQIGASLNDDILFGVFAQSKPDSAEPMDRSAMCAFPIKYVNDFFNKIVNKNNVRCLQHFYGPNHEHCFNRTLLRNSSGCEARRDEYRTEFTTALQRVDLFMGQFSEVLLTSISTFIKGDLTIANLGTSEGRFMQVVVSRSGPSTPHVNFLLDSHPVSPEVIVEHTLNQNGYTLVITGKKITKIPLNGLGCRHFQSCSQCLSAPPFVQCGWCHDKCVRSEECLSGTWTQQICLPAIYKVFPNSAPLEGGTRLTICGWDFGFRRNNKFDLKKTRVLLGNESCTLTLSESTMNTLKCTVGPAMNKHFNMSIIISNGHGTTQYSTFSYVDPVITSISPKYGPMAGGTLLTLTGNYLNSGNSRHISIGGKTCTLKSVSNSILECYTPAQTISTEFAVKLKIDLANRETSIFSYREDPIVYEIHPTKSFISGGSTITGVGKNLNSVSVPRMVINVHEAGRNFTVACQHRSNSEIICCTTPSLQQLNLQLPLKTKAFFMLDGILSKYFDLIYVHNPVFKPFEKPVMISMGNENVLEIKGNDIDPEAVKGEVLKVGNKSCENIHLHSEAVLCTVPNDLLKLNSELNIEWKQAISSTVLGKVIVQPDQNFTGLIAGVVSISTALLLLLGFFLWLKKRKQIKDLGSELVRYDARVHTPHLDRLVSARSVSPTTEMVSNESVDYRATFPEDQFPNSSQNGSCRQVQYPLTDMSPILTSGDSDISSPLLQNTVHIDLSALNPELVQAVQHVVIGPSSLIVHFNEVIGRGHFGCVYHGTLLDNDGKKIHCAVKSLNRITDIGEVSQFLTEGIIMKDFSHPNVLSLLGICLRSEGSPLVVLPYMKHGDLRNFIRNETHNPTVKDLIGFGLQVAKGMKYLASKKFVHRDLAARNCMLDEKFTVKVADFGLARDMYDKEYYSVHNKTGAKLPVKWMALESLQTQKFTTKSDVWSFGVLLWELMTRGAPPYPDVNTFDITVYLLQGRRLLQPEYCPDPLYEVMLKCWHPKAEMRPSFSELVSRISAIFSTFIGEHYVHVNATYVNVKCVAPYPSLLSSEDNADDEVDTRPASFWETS

By IC50 is commonly meant the concentration at which inhibition is half-maximal. In general, EC50 refers to the concentration needed to bring the measured effect to its halfway point. Take `COc1cc2nccc(Oc3c(F)cc(NC(=O)c4cnccc4OC4CC4)cc3F)c2cc1OC` [Example 91, 4-cyclopropoxy-N-{4-[(6,7-dimethoxyquinolin-4-yl)oxy]-3,5-difluorophenyl}pyridine-3-carboxamide]: the half-maximal inhibitory concentration (IC50) on MET and at MET D1228N was at most 100 nM throughout. The EC50 (at Ba/F3-TPR-MET cells; in assay [1]) was at most 100 nM in each case.
Take `CCNCCOc1cc2nccc(Oc3c(F)cc(NC(=O)c4cnccc4OC4CC4)cc3F)c2cc1OC` [Example 75, 4-cyclopropoxy-N-[4-({7-[2-(ethylamino)ethoxy]-6-methoxyquinolin-4-yl}oxy) -3,5-difluorophenyl]pyridine-3-carboxamide]: the IC50 at MET and at MET D1228N was at most 100 nM each time. Further, the EC50 (on Ba/F3-TPR-MET cells; in assay [1]) was at most 100 nM throughout.
With `O=C(Nc1cc(F)c(Oc2ccnc3cc(OCCO)ccc23)c(F)c1)c1cnccc1OC1CC1` [Example 100, 4-cyclopropoxy-N-(3,5-difluoro-4-{[7-(2-hydroxyethoxy)quinolin-4-yl]oxy}phenyl)pyridine-3-carboxamide], the IC50 on MET and at MET D1228N was at most 100 nM in each case. The results for the EC50 (at Ba/F3-TPR-MET cells; in assay [1]) were 100 to 1000 nM and at most 100 nM, respectively.
Regarding `CNCCOc1cc2nccc(Oc3c(F)cc(NC(=O)c4cnccc4OC[C@H](C)O)cc3F)c2cc1OC` [Example 64, (S)-N-(3,5-difluoro-4-((6-methoxy-7-(2-(methylamino)ethoxy)quinolin-4-yl)oxy)phenyl)-4-(2-hydroxypropoxy)pyridine-3-carboxamide], the IC50 at MET and at MET D1228N was at most 100 nM each time. The EC50 (at Ba/F3-TPR-MET cells; in assay [1]) was 100 to 1000 nM in each case.
Turning to `CNCCOc1ccc2c(Oc3c(F)cc(NC(=O)c4cnc(C)cc4OC4CC4)cc3F)ccnc2c1` [Example 115, 4-cyclopropoxy-N-(3,5-difluoro-4-((7-(2-(methylamino)ethoxy)quinolin-4-yl)oxy)phenyl)-6-methylpyridine-3-carboxamide], the IC50 on MET and at MET D1228N was at most 100 nM in each case. Also, the EC50 (on Ba/F3-TPR-MET cells; in assay [1]) was at most 100 nM throughout.
Take `COc1cc2nccc(Oc3c(F)cc(NC(=O)c4nnccc4OC4CC4)cc3F)c2cc1OC` [Example 149, 4-cyclopropoxy-N-(4-((6,7-dimethoxyquinolin-4-yl)oxy)-3,5-difluorophenyl)pyridazine-3-carboxamide]: the IC50 at MET and at MET D1228N was at most 100 nM in each case. Further, the figures for the EC50 (on Ba/F3-TPR-MET cells; in assay [1]) were 100 to 1000 nM and at most 100 nM, respectively.
On to `COc1cc(OC2CC2)c(C(=O)Nc2cc(F)c(Oc3ccnc4cc(OCCO)c(OC)cc34)c(F)c2)cn1` [Example 111, 4-cyclopropoxy-N-(3,5-difluoro-4-((7-(2-hydroxyethoxy)-6-methoxyquinolin-4-yl)oxy)phenyl)-6-methoxypyridine-3-carboxamide], for which the IC50 on MET and at MET D1228N was at most 100 nM each time. Besides, the EC50 (on Ba/F3-TPR-MET cells; in assay [1]) was at most 100 nM throughout.
Consider `COc1cc2nccc(Oc3c(F)cc(NC(=O)c4cnccc4OC4CC4)c(F)c3F)c2cc1OC` [Example 92, 4-cyclopropoxy-N-{4-[(6,7-dimethoxyquinolin-4-yl)oxy]-2,3,5-trifluorophenyl}pyridine-3-carboxamide], for which the IC50 at MET and at MET D1228N was at most 100 nM in each case. In addition, the EC50 (on Ba/F3-TPR-MET cells; in assay [1]) was 100 to 1000 nM in each case.
With `CNCCOc1cc2nccc(Oc3c(F)cc(NC(=O)c4cnccc4OC[C@@H](C)F)cc3F)c2cc1OC` [Example 61, N-[3,5-difluoro-4-({6-methoxy-7-[2-(methylamino)ethoxy]quinolin-4-yl}oxy)phenyl]-4-[(2R)-2-fluoropropoxy]pyridine-3-carboxamide], the IC50 on MET and on MET D1228N was at most 100 nM each time. Also, the EC50 (on Ba/F3-TPR-MET cells; in assay [1]) was at most 100 nM in each case.
`CNCCOc1cc2nccc(Oc3c(F)cc(NC(=O)c4cnccc4O[C@@H]4CCOC4)cc3F)c2cc1OC` [Example 70, N-[3,5-difluoro-4-({6-methoxy-7-[2-(methylamino)ethoxy]quinolin-4-yl}oxy)phenyl]-4-[(3R)-oxolan-3-yloxy]pyridine-3-carboxamide]: the IC50 on MET and at MET D1228N was at most 100 nM in each case. Besides, the EC50 (on Ba/F3-TPR-MET cells; in assay [1]) was 100 to 1000 nM throughout.
Consider `CNCCOc1cc2ncnc(Oc3c(F)cc(NC(=O)c4c(OC)ccnc4F)cc3F)c2cc1OC` [Example 7, N-(3,5-difluoro-4-((6-methoxy-7-(2-(methylamino)ethoxy)quinazolin-4-yl)oxy)phenyl)-2-fluoro-4-methoxypyridine-3-carboxamide], for which the IC50 on MET and at MET D1228N was at most 100 nM in each case. For the same molecule, the EC50 on Ba/F3-TPR-MET cells was 1000 to 10000 nM; in assay [1], 100 to 1000 nM.
`COc1cc2nccc(Oc3c(F)cc(NC(=O)c4cnccc4OC)cc3F)c2cc1O[C@@H](C)CO` [Example 126, (S)-N-(3,5-difluoro-4-{[6-((1-hydroxypropan-2-yl)oxy)-7-methoxyquinolin-4-yl]oxy}phenyl)-4-methoxypyridine-3-carboxamide]: the IC50 at MET and at MET D1228N was at most 100 nM throughout. Moreover, the EC50 (at Ba/F3-TPR-MET cells; in assay [1]) was at most 100 nM in each case.
Consider `CNCCOc1cc2nccc(Oc3c(F)cc(NC(=O)c4cnccc4OCCOC)cc3F)c2cc1OC` [Example 67, N-[3,5-difluoro-4-({6-methoxy-7-[2-(methylamino)ethoxy]quinolin-4-yl}oxy)phenyl]-4-(2-methoxyethoxy)pyridine-3-carboxamide], for which the IC50 on MET and at MET D1228N was at most 100 nM in each case. Also, the concentration giving a half-maximal response (EC50) (on Ba/F3-TPR-MET cells; in assay [1]) was 100 to 1000 nM throughout.
On to `CCOc1ccncc1C(=O)Nc1ccc(Oc2ccnc3cc(OCCCNC)c(OC)cc23)c(F)c1F` [Example 17, N-[2,3-difluoro-4-({6-methoxy-7-[3-(methylamino)propoxy]quinolin-4-yl}oxy)phenyl]-4-ethoxypyridine-3-carboxamide], for which the IC50 at MET and on MET D1228N was at most 100 nM each time. The EC50 (on Ba/F3-TPR-MET cells; in assay [1]) was at most 100 nM throughout.
In the case of `COc1cc2nccc(Oc3c(F)cc(NC(=O)c4cnccc4OC)cc3F)c2cc1O[C@H](C)CO` [Example 131, (R)-N-(3,5-difluoro-4-{[6-((1-hydroxypropan-2-yl)oxy)-7-methoxyquinolin-4-yl]oxy}phenyl)-4-methoxypyridine-3-carboxamide], the IC50 on MET and on MET D1228N was at most 100 nM throughout. Moreover, the EC50 (at Ba/F3-TPR-MET cells; in assay [1]) was at most 100 nM in each case.
For `CNCCCOc1cc2nccc(Oc3c(F)cc(NC(=O)c4cnccc4OC4COC4)cc3F)c2cc1OC` [Example 86, N-(3,5-difluoro-4-((6-methoxy-7-(3-(methylamino)propoxy)quinolin-4-yl)oxy)phenyl)-4-(oxetan-3-yloxy)pyridine-3-carboxamide], the IC50 at MET and on MET D1228N was at most 100 nM each time. The EC50 (on Ba/F3-TPR-MET cells; in assay [1]) was 100 to 1000 nM in each case.
